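Tested at 5 concentrations; 48 h exposure; 96-well plates; endpoints linearly interpolated, else capped at highest concentration. GI50 is the concentration that inhibits growth by half. TGI is the concentration that stops growth completely.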
Key:
Assay in all cases: inhibition of tumour cell growth, NCI panel, 48 h
HCC-2998 colon = system: HCC-2998 colon
NCI-H23 lung = system: NCI-H23 lung
TK-10 renal = system: TK-10 renal
SK-MEL-28 melanoma = system: SK-MEL-28 melanoma
OVCAR-3 ovarian = system: OVCAR-3 ovarian
MDA-MB-231 breast = system: MDA-MB-231 breast
SNB-19 CNS = system: SNB-19 CNS
NCI/ADR-RES ovarian = system: NCI/ADR-RES ovarian
HT29 colon = system: HT29 colon
MDA-MB-435 = system: MDA-MB-435
HOP-62 NSCLC = system: HOP-62 NSCLC
OVCAR-8 ovarian = system: OVCAR-8 ovarian
HCT-15 colon = system: HCT-15 colon
IGROV1 ovarian = system: IGROV1 ovarian
NCI-H226 lung = system: NCI-H226 lung
MCF7 breast = system: MCF7 breast
786-0 renal = system: 786-0 renal
HL-60(TB) leukemia = system: HL-60(TB) leukemia
SK-MEL-2 melanoma = system: SK-MEL-2 melanoma
LOX IMVI melanoma = system: LOX IMVI melanoma
SNB-75 CNS = system: SNB-75 CNS
T-47D breast = system: T-47D breast
SW-620 colon = system: SW-620 colon
OVCAR-4 ovarian = system: OVCAR-4 ovarian
CAKI-1 renal = system: CAKI-1 renal
U251 CNS = system: U251 CNS
UACC-257 melanoma = system: UACC-257 melanoma
A498 renal = system: A498 renal
OVCAR-5 ovarian = system: OVCAR-5 ovarian
SR leukemia = system: SR leukemia
NCI-H460 lung = system: NCI-H460 lung
KM12 colon = system: KM12 colon
SN12C renal = system: SN12C renal
SK-MEL-5 melanoma = system: SK-MEL-5 melanoma
BT-549 breast = system: BT-549 breast
DU-145 prostate = system: DU-145 prostate
HS 578T breast = system: HS 578T breast
M14 melanoma = system: M14 melanoma
SF-268 CNS = system: SF-268 CNS
MALME-3M melanoma = system: MALME-3M melanoma
NCI-H522 lung = system: NCI-H522 lung
K-562 leukemia = system: K-562 leukemia
EKVX NSCLC = system: EKVX NSCLC
HOP-92 NSCLC = system: HOP-92 NSCLC
A549 NSCLC = system: A549 NSCLC
HCT-116 colon = system: HCT-116 colon
UO-31 renal = system: UO-31 renal
ACHN renal = system: ACHN renal
SK-OV-3 ovarian = system: SK-OV-3 ovarian
RPMI-8226 leukemia = system: RPMI-8226 leukemia
SF-539 CNS = system: SF-539 CNS
CCRF-CEM leukemia = system: CCRF-CEM leukemia
UACC-62 melanoma = system: UACC-62 melanoma
COLO 205 colon = system: COLO 205 colon
SF-295 CNS = system: SF-295 CNS
MOLT-4 leukemia = system: MOLT-4 leukemia
RXF 393 renal = system: RXF 393 renal
PC-3 prostate = system: PC-3 prostate

C#Cc1nc(C2=C(C)C(O)/C(=N/O)C2)cs1 (stereo unspecified)
GI50 (HCC-2998 colon): > 100 µM | TGI (HCC-2998 colon): > 100 µM | GI50 (NCI-H23 lung): 7.4 µM | TGI (NCI-H23 lung): > 100 µM | GI50 (TK-10 renal): > 100 µM | TGI (TK-10 renal): > 100 µM | GI50 (SK-MEL-28 melanoma): 87.8 µM | TGI (SK-MEL-28 melanoma): > 100 µM | GI50 (OVCAR-3 ovarian): > 100 µM | TGI (OVCAR-3 ovarian): > 100 µM | GI50 (MDA-MB-231 breast): 60.1 µM | TGI (MDA-MB-231 breast): > 100 µM | GI50 (SNB-19 CNS): > 100 µM | TGI (SNB-19 CNS): > 100 µM | GI50 (NCI/ADR-RES ovarian): 81.5 µM | TGI (NCI/ADR-RES ovarian): > 100 µM | GI50 (HT29 colon): 25.7 µM | TGI (HT29 colon): 68.1 µM | GI50 (MDA-MB-435): > 100 µM | TGI (MDA-MB-435): > 100 µM | GI50 (HOP-62 NSCLC): 94.9 µM | TGI (HOP-62 NSCLC): > 100 µM | GI50 (OVCAR-8 ovarian): 55.5 µM | TGI (OVCAR-8 ovarian): > 100 µM | GI50 (HCT-15 colon): 49 µM | TGI (HCT-15 colon): > 100 µM | GI50 (IGROV1 ovarian): 2970 nM | TGI (IGROV1 ovarian): 12.1 µM | GI50 (NCI-H226 lung): > 100 µM | TGI (NCI-H226 lung): > 100 µM | GI50 (MCF7 breast): 39 µM | TGI (MCF7 breast): > 100 µM | GI50 (786-0 renal): 3.84 µM | TGI (786-0 renal): 14 µM | GI50 (HL-60(TB) leukemia): 11.9 µM | TGI (HL-60(TB) leukemia): 29 µM | GI50 (SK-MEL-2 melanoma): > 100 µM | TGI (SK-MEL-2 melanoma): > 100 µM | GI50 (LOX IMVI melanoma): 1520 nM | TGI (LOX IMVI melanoma): 2950 nM | GI50 (SNB-75 CNS): > 100 µM | TGI (SNB-75 CNS): > 100 µM | GI50 (T-47D breast): 66.8 µM | TGI (T-47D breast): > 100 µM | GI50 (SW-620 colon): 79.3 µM | TGI (SW-620 colon): > 100 µM | GI50 (OVCAR-4 ovarian): 57.2 µM | TGI (OVCAR-4 ovarian): > 100 µM | GI50 (CAKI-1 renal): 48.3 µM | TGI (CAKI-1 renal): > 100 µM | GI50 (U251 CNS): 79.5 µM | TGI (U251 CNS): > 100 µM | GI50 (UACC-257 melanoma): 57.4 µM | TGI (UACC-257 melanoma): > 100 µM | GI50 (A498 renal): 24.1 µM | TGI (A498 renal): 50.3 µM | GI50 (OVCAR-5 ovarian): 63.6 µM | TGI (OVCAR-5 ovarian): > 100 µM | GI50 (SR leukemia): 1910 nM | TGI (SR leukemia): 5.31 µM | GI50 (NCI-H460 lung): > 100 µM | TGI (NCI-H460 lung): > 100 µM | GI50 (KM12 colon): > 100 µM | TGI (KM12 colon): > 100 µM | GI50 (SN12C renal): 35 µM | TGI (SN12C renal): > 100 µM | GI50 (SK-MEL-5 melanoma): 54.6 µM | TGI (SK-MEL-5 melanoma): > 100 µM | GI50 (BT-549 breast): 19.8 µM | TGI (BT-549 breast): 75.5 µM | GI50 (DU-145 prostate): 49.2 µM | TGI (DU-145 prostate): > 100 µM | GI50 (HS 578T breast): > 100 µM | TGI (HS 578T breast): > 100 µM | GI50 (M14 melanoma): > 100 µM | TGI (M14 melanoma): > 100 µM | GI50 (SF-268 CNS): 40.7 µM | TGI (SF-268 CNS): > 100 µM | GI50 (MALME-3M melanoma): 18.4 µM | TGI (MALME-3M melanoma): 49.6 µM | GI50 (NCI-H522 lung): 14.1 µM | TGI (NCI-H522 lung): 29.1 µM | GI50 (K-562 leukemia): 36.7 µM | TGI (K-562 leukemia): > 100 µM | GI50 (EKVX NSCLC): > 100 µM | TGI (EKVX NSCLC): > 100 µM | GI50 (HOP-92 NSCLC): 18.1 µM | TGI (HOP-92 NSCLC): 34.1 µM | GI50 (A549 NSCLC): 35.3 µM | TGI (A549 NSCLC): > 100 µM | GI50 (HCT-116 colon): 42.2 µM | TGI (HCT-116 colon): > 100 µM | GI50 (UO-31 renal): 1610 nM | TGI (UO-31 renal): 2980 nM | GI50 (ACHN renal): 3.61 µM | TGI (ACHN renal): > 100 µM | GI50 (SK-OV-3 ovarian): 18.8 µM | TGI (SK-OV-3 ovarian): 39.3 µM | GI50 (RPMI-8226 leukemia): 5.19 µM | TGI (RPMI-8226 leukemia): 21.8 µM | GI50 (SF-539 CNS): 11.5 µM | TGI (SF-539 CNS): 23.6 µM | GI50 (CCRF-CEM leukemia): 2210 nM | TGI (CCRF-CEM leukemia): 5.3 µM | GI50 (UACC-62 melanoma): > 100 µM | TGI (UACC-62 melanoma): > 100 µM | GI50 (COLO 205 colon): > 100 µM | TGI (COLO 205 colon): > 100 µM | GI50 (SF-295 CNS): 12.5 µM | TGI (SF-295 CNS): 28.5 µM | GI50 (MOLT-4 leukemia): 15.1 µM | TGI (MOLT-4 leukemia): 40.9 µM | GI50 (RXF 393 renal): 19.4 µM | TGI (RXF 393 renal): 62.6 µM | GI50 (PC-3 prostate): 39.1 µM | TGI (PC-3 prostate): > 100 µM

— PubChem BioAssay (NCI)
